US12357611B2, “Sulcardine administration for treatment of acute atrial fibrillation” (HUYABIO International, LLC, priority 2018, dated 2025)
Counter-ions that a name gives are not always drawn.

What was measured:
[1] = system: healthy subjects; test: Phase 1 single ascending iv dose trial: continuous 12-lead Holter ECG, baseline and placebo subtracted (ΔΔ) ECG intervals at Cmax; type: in vivo, human; conditions: single iv doses 20 to 600 mg
Experimental: (§1) HBI-3000 (sulcardine sulfate) was administered to human subjects according to the protocol provided in ClinicalTrials.gov Identifier: NCT03397641. That protocol is incorporated herein by reference in its entirety.
(§2) Objective: Provided herein are the safety, tolerability, pharmacokinetics and electrocardiogram (ECG) results of a Phase 1 single ascending dose trial of intravenous (iv) HBI-3000 in healthy subjects.
(§3) Methods: […] subjects were randomized to 6 cohorts of 8 subjects to receive 1 of 5 single ascending iv doses (Table 2) of HBI-3000 or placebo (6:2), with 2 cohorts receiving the 600 mg dose. Doses of RBI-3000 ranged from 20 mg (Cohort A), 60 mg (Cohort B), 180 mg (Cohort C), 360 mg (Cohort D), to 600 mg (Cohort E and F). Drug was a lyophilized powder, reconstituted to […] then diluted in saline for delivery via intravenous infusion as a 50 mL solution over 30 minutes.
Continuous 12-lead Holter ECG data were recorded at baseline and 11 time points thereafter. Mean baseline and placebo subtracted (ΔΔ) ECG intervals (QTcF, HR, PR, QRS, and P-wave duration [PDur]) and T-wave segments (J to T peak [JTp] and T peak to T end [TpTe]) were calculated at Cmax for each dose.
Table 2 summarizes ECG data at Cmax for each dose, as predicted by mixed-effects modeling. […] The increases in QRS and PDur are consistent with block of INa-Peak. […]

[2] = Phase 1 single ascending iv dose trial: pharmacokinetics (plasma sulcardine); type: in vivo, human; conditions: iv infusion, various dosages, FIG. 1
Experimental: as §1, §2, §3

[3] = system: healthy subjects; test: Phase 1 single ascending iv dose trial: safety and tolerability; type: in vivo; conditions: single iv doses 20 to 600 mg
Experimental: as §1, §2, §3

[4] = Chen et al.; cited from earlier work

COc1ccc(S(=O)(=O)NCc2cc(CN3CCCC3)c(O)c(CN3CCCC3)c2)cc1 [HBI-3000, sulcardine sulfate]
dose dependence of ECG parameter changes [1]: dose-proportional changes in all ECG parameters | removal from plasma after Cmax ([2]; listed as sulcardine sulfate): quickly removed or isolated from plasma | tolerability, dose limiting adverse events or arrhythmias [3]: well tolerated with no dose limiting adverse events or arrhythmias observed

COc1ccc(S(=O)(=O)NCc2cc(CN3CCCC3)c(O)c(CN3CCCC3)c2)cc1 [sulcardine, N-[4-hydroxy-3,5-bis(1-pyrrolidinylmethyl)benzyl]-4-methoxybenzenesulfonamide]
removal from plasma after Cmax [2]: largely removed or isolated from plasma at 1.0 hours | half-life for oral administration [4]: about 16 hours
